What all share (test): inhibition of tumour cell growth, NCI panel, 48 h
Assay [1] relates to UO-31.
Assay [2] deals with MCF7.
In assay [3] the test system is IGROV-1.
Assay [4] deals with BT-549.
In assay [5] the test system is ACHN.
For assay [6], the system named is MDA-MB-231.
For assay [7], the system named is HT-29.
Assay [8] relates to SF-539.
Assay [9] relates to SF-295.
Assay [10] deals with SNB-19.
The test system of assay [11] is KM12.
In assay [12] the test system is NCI-H460.
Assay [13] relates to EKVX.
Assay [14] relates to RPMI-8226.
Assay [15] has as its system HCT-15.
Assay [16] concerns SR.
Assay [17] relates to HOP-92.
Assay [18] deals with LOX IMVI.
In assay [19] the test system is OVCAR-5.
The test system of assay [20] is K562.

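Five concentrations, 48 hours, 96-well plates. The concentration for 50% growth inhibition is given as GI50.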 Activity calls are given as the source filed them. Cut-off read from the data, not from the text of the source: active = GI50 up to about 1.1 µM and inactive = higher.

Take `C[n+]1cccc2ccc3cccnc3c21`: the GI50 in assay [1] is 21.8 µM (inactive); in assay [2], 38.5 µM (inactive); in [3], 76 µM (inactive); in assay [4], 31.7 µM (inactive); in [5] it was 20.9 µM (inactive); in assay [6], 83.6 µM (inactive). In addition, the GI50 in assay [7] was 28.2 µM (inactive); in assay [8], 48 µM (inactive); in assay [9] it was 43.6 µM (inactive); in [10] it was 30.8 µM (inactive); in [11] it was 9.08 µM (inactive); in assay [12], 23.2 µM (inactive). Further, the GI50 in [13] was 6.84 µM (inactive); in assay [14], 4.91 µM (inactive); in [15] it was 61.8 µM; in assay [16], > 100 µM (inactive); in [17] it was 57.7 µM (inactive); in [18] it was 29 µM (inactive). Also, the GI50 in [19] was 82 µM (inactive); in [20], > 100 µM (inactive).
On to `CCO/N=C\c1ccc2oc(-c3ccccc3)cc(=O)c2c1`, for which the GI50 in assay [1] is 0.394 µM (active); in assay [2], 0.31 µM (active); in assay [3], 0.24 µM (active); in [4] it was 1.06 µM (active); in assay [5] it was 1.51 µM (inactive); in assay [6] it was 0.557 µM (active). For the same compound, the GI50 was 0.0521 µM (active) in assay [7]; 0.168 µM (active) in assay [8]; 0.191 µM (active) in assay [9]; 0.48 µM (active) in assay [10]; 0.0522 µM (active) in [11]; 0.136 µM (active) in assay [12]. Besides, the GI50 in assay [13] was 3.03 µM (inactive); in assay [14], 0.215 µM (active); in assay [15], 0.0475 µM; in assay [16] it was < 0.0135 µM (active); in assay [17], 3.26 µM (inactive); in assay [18], 1.07 µM (active). Further, the values for the GI50 in [19] and in assay [20] were 2.56 µM (inactive) and 0.034 µM (active), respectively.
Turning to `COc1ccc(C(SCC(N)C(=O)O)(c2ccc(OC)cc2)c2ccc(OC)cc2)cc1` (stereo not given), the GI50 was 11.9 µM (inactive) in assay [1]; 8.63 µM (inactive) in assay [2]; 13.3 µM (inactive) in [3]; 12.8 µM (inactive) in assay [4]; 12 µM (inactive) in assay [5]; 13.2 µM (inactive) in [6]. The GI50 in assay [7] is 10.6 µM (inactive); in [8] it was 12.9 µM (inactive); in assay [9] it was 11.8 µM (inactive); in [10], 14.1 µM (inactive); in assay [11] it was 6.32 µM (inactive); in assay [12] it was 11.3 µM (inactive). Also, the GI50 in [13] is 13.7 µM (inactive); in [14], 15.9 µM (inactive); in assay [15], 11.6 µM; in assay [16], 6.27 µM (inactive); in assay [17], 14.7 µM (inactive); in [18], 9.02 µM (inactive). Besides, the values for the GI50 in assay [19] and in [20] were 13.9 µM (inactive) and 10 µM (inactive), respectively.
Turning to `CCc1nc2ccc(NCCN(C)C)c3c(=O)c4ccccc4n1c23`, the GI50 in assay [1] is 1.24 µM (inactive); in assay [2], 2.11 µM (inactive); in assay [3], 0.265 µM (active); in [4] it was 4.61 µM (inactive); in assay [5], 0.417 µM (active); in assay [6] it was 0.135 µM (active). Further, the GI50 is 0.489 µM (active) in assay [7]; 1.67 µM (inactive) in [8]; 0.741 µM (active) in assay [9]; 2.57 µM (inactive) in assay [10]; 0.701 µM (active) in assay [11]; 0.23 µM (active) in [12]. Also, the GI50 in assay [13] is 1.17 µM (inactive); in assay [14] it was 0.752 µM (active); in [15] it was 0.456 µM; in [16] it was 0.193 µM (active); in [17] it was 0.592 µM (active); in [18], 0.6 µM (active). Moreover, the GI50 was 1.67 µM (inactive) in assay [19] and 0.468 µM (active) in assay [20].
On to `COc1ccc2c(c1)/C(=C\c1c(Cl)n(-c3ccccc3)c3ccccc13)C(=O)N2`, for which the GI50 was 1.53 µM (inactive) in [1]; 3.45 µM (inactive) in assay [2]; 4.12 µM (inactive) in [3]; 10.7 µM (inactive) in assay [4]; 9.18 µM (inactive) in [5]; 13.4 µM (inactive) in assay [6]. Besides, the GI50 was 3.48 µM (inactive) in assay [7]; 2.98 µM (inactive) in assay [8]; 3.91 µM (inactive) in assay [9]; 3.67 µM (inactive) in assay [10]; 3.18 µM (inactive) in assay [11]; 5.07 µM (inactive) in assay [12]. Besides, the GI50 in assay [13] is 5.86 µM (inactive); in assay [14] it was 1.38 µM (inactive); in [15], 2.36 µM; in [16], 2.59 µM (inactive); in assay [17] it was 2.08 µM (inactive); in assay [18] it was 6.44 µM (inactive). Besides, the GI50 in assay [19] is 12.4 µM (inactive); in assay [20], 2.19 µM (inactive).

Values taken from ChEMBL document CHEMBL1201862, “PubChem BioAssay data set” (2004).
